Experimental data from patent publication US20050130890A1, “Amyloid beta is a ligand for FPR class receptors” (priority 2001, published 2005).

Key:
mouse FPR2 = target: T1, mouse FPR2 (Mus musculus, UniProt O88536); assay: Calcium flux in FPR2-transfected HEK 293 cells; format: cell-based; details: 250 ng/ml pertussis toxin for 4 h
T1 construct: expressed in transfected cells; host or cells: HEK 293
T1 sequence (O88536 1-351): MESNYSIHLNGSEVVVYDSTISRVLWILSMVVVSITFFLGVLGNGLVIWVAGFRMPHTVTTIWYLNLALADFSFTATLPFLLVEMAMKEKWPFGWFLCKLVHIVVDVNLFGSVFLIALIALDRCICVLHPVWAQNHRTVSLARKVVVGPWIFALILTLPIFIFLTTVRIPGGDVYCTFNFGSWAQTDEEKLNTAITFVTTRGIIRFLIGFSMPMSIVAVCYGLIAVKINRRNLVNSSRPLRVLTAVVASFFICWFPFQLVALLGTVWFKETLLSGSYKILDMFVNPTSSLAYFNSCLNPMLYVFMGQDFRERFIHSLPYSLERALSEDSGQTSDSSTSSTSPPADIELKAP
Description: Cell Lines. Construction of human embryonic kidney (HEK) 293 cell lines expressing human formylpeptide receptor (FPR), human formylpeptide receptor-like 1 receptor (FPRL1R), mouse FPR, mouse FPR2, mouse lipoxin A4 receptor (encoded by Fpr-rs1), a mouse orphan receptor encoded by Fpr-rs3, and human CCR5 and CX3CR1 has been previously described (Hartt J. K. et al. 1999 J Exp Med 190:741-747; Combadiere C. et al. 1996 J Leukocyte Biol 60:147-152; Combadiere C. et al. 1998 J Biol Chem 273:23799-23804; Gao J.-L. et al. 1998 Genomics 51:270-276). Fpr-rs1 and Fpr-rs3 were tested because of their high structural similarity to the known formylpeptide receptors and because they are also expressed in phagocytes (Gao J.-L. et al. 1998 Genomics 51:270-276). […]
Calcium Flux Analysis. […] Data were recorded every 200 ms as the relative ratio of fluorescence emitted at 510 nm following sequential excitation at 340 and 380 nm. The following ligands were evaluated: Aβ (nonfibrillated, human residues 1-42; California Peptide Research; Napa, Calif.), fMet-Leu-Phe (fMLF; Sigma), ATP (Life Technologies), and the chemokines RANTES (regulated upon activation normal T-cell expressed and secreted), SDF-1 (stromal cell-derived factor-1), 1-309, fractalkine, MIP-1α (macrophage inflammatory protein-1α), and KC (Peprotech, Rocky Hill, N.J.). […]

human monocytes = assay: Chemotaxis (migration) of human monocytes, 48-well chamber; format: cell-based; details: PT 100 ng/ml, 37° C., 30 min
Description: Reagents and cells. Aβ peptide (Aβ42) and the peptide with reversed sequence (Aβ42-1) were purchased from California Peptide Research (Napa, Calif.). All peptides were examined for endotoxin contamination and were negative at highest concentrations used in the study. Human peripheral blood monocytes were isolated from buffy coats (National Institutes of Health Clinical Center, Bethesda, Md.) enriched for mononuclear cells by using iso-osmotic Percoll gradient. The purity of the cell preparations was examined by morphology and was >90%. Rat basophilic leukemia cell line (RBL-2H3) transfected with epitope-tagged N-formylpeptide receptor (FPR) (designated ETFR) was a kind gift of Dr. R. Snyderman (Duke University, Durham, N.C.). cDNA cloning and establishment of FPRL1-transfected human embryonic kidney (HEK) 293 cells (FPRL1/293) were described previously (Gao J. L. & Murphy P. M. 1993 J Biol Chem 268:[…]). All the transfected cells were maintained in culture media as described (Su S. B. et al. 1999 J Exp Med 189:395-402).
Chemotaxis assays and measurement of calcium mobilization. Chemotaxis assays were performed using 48-well chemotaxis chambers (Deng X. et al. 1999 Blood 94:1165-1673). The results were expressed as the mean number (±SD) of migrated cells in three high-powered fields in three replicate samples. Chemotaxis index, which represented the fold increase in the number of cells migrated in response to chemoattractants over the cell response to control medium, also was used. Ca^+ mobilization was measured by stimulating fura-2 AM-loaded human monocytes or receptor-transfected cells with various agents (Deng X. et al. 1999 Blood 94:1165-1673; Su S. B. et al. 1999 J Exp Med 189:395-402) and recording the ratio of fluorescence at 340 and 380 nm in a luminescence spectrometer with FL WinLab program (Perkin-Elmer, Beaconsfield, UK).

## pertussis toxin
Mouse FPR2
  effect of pretreatment on Aβ calcium flux signaling: completely blocked
Human monocytes
  effect of preincubation on monocyte migration in response to Aβ42: completely abolished
